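All cell lines were grown in 96-well plates and treated with compound for 48 hours. GI50: concentration for 50% inhibition of growth.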 Active and inactive are the calls of the source. Rule as the data show it: active = GI50 up to about 1.1 µM and inactive = higher.
Columns and labels:
Test in all cases: NCI anticancer screen, dose series, 48 h
[1] = tested on: 786-0
[2] = tested on: ACHN
[3] = tested on: SK-MEL-5
[4] = tested on: OVCAR-5
[5] = tested on: HCT-15
[6] = tested on: KM12
[7] = tested on: COLO 205
[8] = tested on: NCI/ADR-RES
[9] = tested on: SN12C
[10] = tested on: HT-29
[11] = tested on: SK-MEL-2
[12] = tested on: Malme-3M
[13] = tested on: NCI-H226
[14] = tested on: SNB-19
[15] = tested on: SF-295
[16] = tested on: OVCAR-3
[17] = tested on: CCRF-CEM
[18] = tested on: IGROV-1
[19] = tested on: UACC-62
[20] = tested on: SR
[21] = tested on: MOLT-4
[22] = tested on: DU-145
[23] = tested on: SF-539
[24] = tested on: EKVX
[25] = tested on: MDA-MB-435
[26] = tested on: CAKI-1
[27] = tested on: MDA-N
[28] = tested on: LOX IMVI
[29] = tested on: TK-10
[30] = tested on: A498
[31] = tested on: U-251
[32] = tested on: NCI-H460
[33] = tested on: MDA-MB-231
[34] = tested on: HOP-92
[35] = tested on: Hs-578T
[36] = tested on: RXF 393
[37] = tested on: RPMI-8226
[38] = tested on: T47D
[39] = tested on: K562
[40] = tested on: NCI-H23
[41] = tested on: OVCAR-4
[42] = tested on: SW-620
[43] = tested on: PC-3
[44] = tested on: HCT-116
[45] = tested on: SNB-75
[46] = tested on: SF-268
[47] = tested on: MCF7
[48] = tested on: M14
[49] = tested on: SK-MEL-28
[50] = tested on: HL-60
[51] = tested on: UO-31
[52] = tested on: BT-549
[53] = tested on: OVCAR-8
[54] = tested on: A549
[55] = tested on: HOP-62
[56] = tested on: SK-OV-3
[57] = tested on: NCI-H522
[58] = tested on: HCC 2998
[59] = tested on: UACC-257

For `OCCCNCc1ccncc1`, the GI50 [1] was > 100 µM (inactive), the GI50 [2] was > 100 µM (inactive) and the GI50 [3] was > 100 µM (inactive). The GI50 [4] was > 100 µM (inactive), the GI50 [5] was greater than 100 µM and the GI50 [6] was > 100 µM (inactive). For the same molecule, the GI50 [7] was > 100 µM (inactive), the GI50 [8] was > 100 µM (inactive) and the GI50 [9] was > 100 µM (inactive). The GI50 [10] was > 100 µM (inactive), the GI50 [11] was > 100 µM (inactive) and the GI50 [12] was > 100 µM (inactive). The GI50 [13] was > 100 µM (inactive), the GI50 [14] was > 100 µM (inactive) and the GI50 [15] was > 100 µM (inactive). For the same molecule, the GI50 [16] was > 100 µM (inactive), the GI50 [17] was > 100 µM (inactive) and the GI50 [18] was > 100 µM (inactive). The GI50 [19] was > 100 µM (inactive), the GI50 [20] was > 100 µM (inactive) and the GI50 [21] was > 100 µM (inactive). For the same molecule, the GI50 [22] was > 100 µM (inactive), the GI50 [23] was > 100 µM (inactive) and the GI50 [24] was > 100 µM (inactive). The GI50 [25] was > 100 µM (inactive), the GI50 [26] was > 100 µM (inactive) and the GI50 [27] was > 100 µM (inactive). For the same molecule, the GI50 [28] was > 100 µM (inactive), the GI50 [29] was > 100 µM (inactive) and the GI50 [30] was > 100 µM (inactive). For the same molecule, the GI50 [31] was > 100 µM (inactive), the GI50 [32] was > 100 µM (inactive) and the GI50 [33] was > 100 µM (inactive). The GI50 [34] was > 100 µM (inactive), the GI50 [35] was > 100 µM (inactive) and the GI50 [36] was > 100 µM (inactive). For the same molecule, the GI50 [37] was > 100 µM (inactive), the GI50 [38] was > 100 µM (inactive) and the GI50 [39] was > 100 µM (inactive). For the same molecule, the GI50 [40] was > 100 µM (inactive), the GI50 [41] was > 100 µM (inactive) and the GI50 [42] was > 100 µM (inactive). The GI50 [43] was > 100 µM (inactive), the GI50 [44] was > 100 µM (inactive) and the GI50 [45] was > 100 µM (inactive). For the same molecule, the GI50 [46] was > 100 µM (inactive), the GI50 [47] was > 100 µM (inactive) and the GI50 [48] was > 100 µM (inactive). The GI50 [49] was > 100 µM (inactive), the GI50 [50] was > 100 µM (inactive) and the GI50 [51] was > 100 µM (inactive). For the same molecule, the GI50 [52] was > 100 µM (inactive), the GI50 [53] was > 100 µM (inactive) and the GI50 [54] was > 100 µM (inactive). For the same molecule, the GI50 [55] was > 100 µM (inactive), the GI50 [56] was > 100 µM (inactive) and the GI50 [57] was > 100 µM (inactive).

With `COc1ccc(-c2c(C#N)c(N)n(C3OCC(O)C(O)C3O)c(=S)c2C#N)cc1` (stereo not given) the GI50 [1] was > 100 µM (inactive), the GI50 [2] was > 100 µM (inactive) and the GI50 [3] was > 100 µM (inactive). The GI50 [4] was > 100 µM (inactive), the GI50 [5] was greater than 100 µM and the GI50 [6] was > 100 µM (inactive). For the same molecule, the GI50 [8] was > 100 µM (inactive), the GI50 [9] was > 100 µM (inactive) and the GI50 [10] was > 100 µM (inactive). The GI50 [11] was 21.6 µM (inactive), the GI50 [12] was > 100 µM (inactive) and the GI50 [13] was > 100 µM (inactive). The GI50 [14] was > 100 µM (inactive), the GI50 [15] was > 100 µM (inactive) and the GI50 [16] was > 100 µM (inactive). The GI50 [17] was > 100 µM (inactive), the GI50 [18] was > 100 µM (inactive) and the GI50 [19] was > 100 µM (inactive). For the same molecule, the GI50 [20] was > 100 µM (inactive), the GI50 [21] was > 100 µM (inactive) and the GI50 [22] was > 100 µM (inactive). The GI50 [23] was > 100 µM (inactive), the GI50 [25] was > 100 µM (inactive) and the GI50 [26] was > 100 µM (inactive). The GI50 [27] was > 100 µM (inactive), the GI50 [28] was > 100 µM (inactive) and the GI50 [29] was > 100 µM (inactive). For the same molecule, the GI50 [30] was > 100 µM (inactive), the GI50 [32] was > 100 µM (inactive) and the GI50 [33] was > 100 µM (inactive). For the same molecule, the GI50 [35] was > 100 µM (inactive), the GI50 [36] was > 100 µM (inactive) and the GI50 [37] was > 100 µM (inactive). For the same molecule, the GI50 [38] was 95.9 µM (inactive), the GI50 [39] was > 100 µM (inactive) and the GI50 [40] was > 100 µM (inactive). For the same molecule, the GI50 [42] was > 100 µM (inactive), the GI50 [43] was > 100 µM (inactive) and the GI50 [45] was > 100 µM (inactive). The GI50 [46] was > 100 µM (inactive), the GI50 [47] was > 100 µM (inactive) and the GI50 [48] was > 100 µM (inactive). The GI50 [49] was > 100 µM (inactive), the GI50 [50] was > 100 µM (inactive) and the GI50 [51] was > 100 µM (inactive). The GI50 [52] was > 100 µM (inactive), the GI50 [53] was > 100 µM (inactive) and the GI50 [54] was > 100 µM (inactive). For the same molecule, the GI50 [58] was > 100 µM (inactive), the GI50 [55] was > 100 µM (inactive) and the GI50 [56] was > 100 µM (inactive). For the same molecule, the GI50 [57] was > 100 µM (inactive).

With `Cc1ccc(CCCCCOc2ccc(C3=NCCO3)cc2)s1` the GI50 [1] was > 100 µM (inactive), the GI50 [2] was > 100 µM (inactive) and the GI50 [59] was > 100 µM (inactive). The GI50 [3] was > 100 µM (inactive), the GI50 [4] was > 100 µM (inactive) and the GI50 [5] was greater than 100 µM. The GI50 [6] was > 100 µM (inactive), the GI50 [7] was > 100 µM (inactive) and the GI50 [8] was > 100 µM (inactive). The GI50 [9] was > 100 µM (inactive), the GI50 [10] was > 100 µM (inactive) and the GI50 [11] was > 100 µM (inactive). The GI50 [12] was > 100 µM (inactive), the GI50 [13] was > 100 µM (inactive) and the GI50 [14] was > 100 µM (inactive). The GI50 [15] was > 100 µM (inactive), the GI50 [16] was > 100 µM (inactive) and the GI50 [17] was > 100 µM (inactive). For the same molecule, the GI50 [18] was > 100 µM (inactive), the GI50 [19] was > 100 µM (inactive) and the GI50 [20] was 2.84 µM (inactive). The GI50 [21] was > 100 µM (inactive), the GI50 [22] was > 100 µM (inactive) and the GI50 [24] was > 100 µM (inactive). For the same molecule, the GI50 [25] was 4.85 µM (inactive), the GI50 [26] was > 100 µM (inactive) and the GI50 [27] was 5.68 µM (inactive). For the same molecule, the GI50 [29] was > 100 µM (inactive), the GI50 [30] was 1.81 µM (inactive) and the GI50 [31] was > 100 µM (inactive). For the same molecule, the GI50 [32] was > 100 µM (inactive), the GI50 [33] was > 100 µM (inactive) and the GI50 [35] was > 100 µM (inactive). For the same molecule, the GI50 [36] was > 100 µM (inactive), the GI50 [37] was > 100 µM (inactive) and the GI50 [38] was > 100 µM (inactive). For the same molecule, the GI50 [39] was 9.29 µM (inactive), the GI50 [40] was > 100 µM (inactive) and the GI50 [41] was > 100 µM (inactive). For the same molecule, the GI50 [42] was > 100 µM (inactive), the GI50 [43] was > 100 µM (inactive) and the GI50 [44] was > 100 µM (inactive). The GI50 [45] was > 100 µM (inactive), the GI50 [46] was > 100 µM (inactive) and the GI50 [47] was > 100 µM (inactive). The GI50 [48] was > 100 µM (inactive), the GI50 [49] was > 100 µM (inactive) and the GI50 [50] was > 100 µM (inactive). The GI50 [51] was > 100 µM (inactive), the GI50 [52] was > 100 µM (inactive) and the GI50 [53] was > 100 µM (inactive). The GI50 [54] was > 100 µM (inactive), the GI50 [58] was > 100 µM (inactive) and the GI50 [55] was > 100 µM (inactive). For the same molecule, the GI50 [56] was > 100 µM (inactive) and the GI50 [57] was > 100 µM (inactive).

— ChEMBL document CHEMBL1201862, “PubChem BioAssay data set” (2004)
